Results as given in ChEMBL document CHEMBL1150210, “Metabolism of the Catharanthus alkaloids: from Streptomyces griseus to monoamine oxidase B” (J Nat Prod, 1992).

Assay: Drug level in mouse liver mitochondria
Format: ADME
Conditions: in vivo

With `CC[C@]1(O)C[C@@H]2CN(CCc3c([nH]c4ccccc34)[C@@](C(=O)OC)(c3cc4c(cc3OC)N(C)[C@H]3[C@@](O)(C(=O)OC)[C@H](OC(C)=O)[C@]5(CC)C=CCN6CC[C@]43[C@@H]65)C2)C1` [VINBLASTINE] as the compound, how does the Drug uptake read?
The Drug uptake was 18.7%.
